Measured values as given in US12157741B2, “Macrocyclic inhibitors of DYRK1A” (DANA-FARBER CANCER INSTITUTE, INC., priority 2018, dated 2024).
Where two headings read alike, the source gives them in different places.

Assays:
Assay type in all cases: binding
various enzymes [1] = biological target: various enzymes (Homo sapiens, UniProt P00533, DEL747-749/A750P); design: other: EGFR(L747-E749del, A750); 1 uM; other: EGFR(L747-E749del, A750P); other: compound 1 uM
Protocol: (§1) Ambit profiling was conducted in accordance with the manufacturer's instructions.

various enzymes [2] = biological target: T1, various enzymes (Homo sapiens, UniProt P36888); design: other: FLT3(ITD); 1 uM; other: compound 1 uM; conditions: compound 1 uM
T1 sequence (P36888 1-993): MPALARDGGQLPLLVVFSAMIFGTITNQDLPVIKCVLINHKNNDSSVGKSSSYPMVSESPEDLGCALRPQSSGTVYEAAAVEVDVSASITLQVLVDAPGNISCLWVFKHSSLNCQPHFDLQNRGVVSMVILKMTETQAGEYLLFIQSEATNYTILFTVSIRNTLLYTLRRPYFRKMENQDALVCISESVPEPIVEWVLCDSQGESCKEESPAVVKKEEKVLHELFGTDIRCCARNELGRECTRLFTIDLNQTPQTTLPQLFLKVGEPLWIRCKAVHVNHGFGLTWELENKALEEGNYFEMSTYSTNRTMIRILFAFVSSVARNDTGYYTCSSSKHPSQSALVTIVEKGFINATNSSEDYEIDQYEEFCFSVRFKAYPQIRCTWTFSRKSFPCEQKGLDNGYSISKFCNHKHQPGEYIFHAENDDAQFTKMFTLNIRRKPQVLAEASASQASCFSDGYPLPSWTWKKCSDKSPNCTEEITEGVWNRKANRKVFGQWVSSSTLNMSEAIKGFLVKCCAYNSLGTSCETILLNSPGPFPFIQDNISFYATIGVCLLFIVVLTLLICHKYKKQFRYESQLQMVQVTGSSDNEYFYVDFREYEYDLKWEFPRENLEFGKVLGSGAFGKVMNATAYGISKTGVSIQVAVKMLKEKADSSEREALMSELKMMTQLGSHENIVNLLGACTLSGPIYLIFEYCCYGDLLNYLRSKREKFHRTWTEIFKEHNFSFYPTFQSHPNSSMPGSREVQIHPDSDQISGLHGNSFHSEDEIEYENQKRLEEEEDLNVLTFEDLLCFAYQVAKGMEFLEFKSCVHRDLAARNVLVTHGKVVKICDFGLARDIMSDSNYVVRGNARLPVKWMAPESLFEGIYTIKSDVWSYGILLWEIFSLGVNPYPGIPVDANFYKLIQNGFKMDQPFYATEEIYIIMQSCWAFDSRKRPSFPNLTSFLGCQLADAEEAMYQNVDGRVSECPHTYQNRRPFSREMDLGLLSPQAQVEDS
Protocol: as §1

various enzymes [3] = biological target: various enzymes (Homo sapiens, UniProt P00533, DEL747-752/P753S); design: other: EGFR(L747-S752del, P753S); 1 uM; other: compound 1 uM
Protocol: as §1

various enzymes [4] = biological target: various enzymes (Homo sapiens, UniProt O94806); conditions: compound 1 uM
Sequence of various enzymes (Homo sapiens, UniProt O94806) (O94806 whole entry): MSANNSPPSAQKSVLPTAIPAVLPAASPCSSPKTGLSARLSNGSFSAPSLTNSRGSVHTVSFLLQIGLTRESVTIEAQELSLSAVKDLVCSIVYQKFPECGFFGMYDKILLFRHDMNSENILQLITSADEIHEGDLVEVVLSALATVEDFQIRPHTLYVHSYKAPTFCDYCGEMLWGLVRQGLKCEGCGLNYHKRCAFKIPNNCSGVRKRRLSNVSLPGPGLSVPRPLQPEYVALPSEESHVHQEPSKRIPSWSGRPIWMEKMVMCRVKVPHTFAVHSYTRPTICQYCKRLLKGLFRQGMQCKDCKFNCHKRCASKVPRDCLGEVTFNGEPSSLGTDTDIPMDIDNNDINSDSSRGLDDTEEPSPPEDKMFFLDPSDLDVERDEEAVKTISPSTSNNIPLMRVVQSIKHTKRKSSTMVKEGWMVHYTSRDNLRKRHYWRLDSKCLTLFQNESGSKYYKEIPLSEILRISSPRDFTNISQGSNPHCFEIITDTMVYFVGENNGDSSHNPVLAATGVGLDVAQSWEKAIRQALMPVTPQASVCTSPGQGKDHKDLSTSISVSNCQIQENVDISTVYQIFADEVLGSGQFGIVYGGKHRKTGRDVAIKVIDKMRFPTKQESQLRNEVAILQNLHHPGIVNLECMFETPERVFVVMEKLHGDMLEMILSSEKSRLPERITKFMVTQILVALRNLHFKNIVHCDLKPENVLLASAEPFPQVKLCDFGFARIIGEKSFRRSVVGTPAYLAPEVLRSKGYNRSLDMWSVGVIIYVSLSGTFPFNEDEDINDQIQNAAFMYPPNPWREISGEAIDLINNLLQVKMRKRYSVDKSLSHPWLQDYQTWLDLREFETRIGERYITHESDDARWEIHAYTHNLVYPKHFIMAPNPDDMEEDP
Protocol: as §1

various enzymes [5] = biological target: various enzymes (Homo sapiens, UniProt P49674); conditions: compound 1 uM
Sequence of various enzymes (Homo sapiens, UniProt P49674) (P49674 whole entry): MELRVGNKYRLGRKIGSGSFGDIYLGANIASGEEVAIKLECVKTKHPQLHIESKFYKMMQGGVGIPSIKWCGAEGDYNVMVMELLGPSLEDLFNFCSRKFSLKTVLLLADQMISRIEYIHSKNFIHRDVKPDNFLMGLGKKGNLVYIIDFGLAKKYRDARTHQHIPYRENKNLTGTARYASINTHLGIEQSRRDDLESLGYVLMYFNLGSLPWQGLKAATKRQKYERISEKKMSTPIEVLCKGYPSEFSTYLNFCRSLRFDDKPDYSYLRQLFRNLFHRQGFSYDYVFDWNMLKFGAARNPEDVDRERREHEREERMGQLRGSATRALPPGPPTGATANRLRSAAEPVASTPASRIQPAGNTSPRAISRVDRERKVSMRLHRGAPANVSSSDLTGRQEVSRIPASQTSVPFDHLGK
Protocol: as §1

various enzymes [6] = biological target: various enzymes (Homo sapiens, UniProt P31749); conditions: compound 1 uM
Sequence of various enzymes (Homo sapiens, UniProt P31749) (P31749 whole entry): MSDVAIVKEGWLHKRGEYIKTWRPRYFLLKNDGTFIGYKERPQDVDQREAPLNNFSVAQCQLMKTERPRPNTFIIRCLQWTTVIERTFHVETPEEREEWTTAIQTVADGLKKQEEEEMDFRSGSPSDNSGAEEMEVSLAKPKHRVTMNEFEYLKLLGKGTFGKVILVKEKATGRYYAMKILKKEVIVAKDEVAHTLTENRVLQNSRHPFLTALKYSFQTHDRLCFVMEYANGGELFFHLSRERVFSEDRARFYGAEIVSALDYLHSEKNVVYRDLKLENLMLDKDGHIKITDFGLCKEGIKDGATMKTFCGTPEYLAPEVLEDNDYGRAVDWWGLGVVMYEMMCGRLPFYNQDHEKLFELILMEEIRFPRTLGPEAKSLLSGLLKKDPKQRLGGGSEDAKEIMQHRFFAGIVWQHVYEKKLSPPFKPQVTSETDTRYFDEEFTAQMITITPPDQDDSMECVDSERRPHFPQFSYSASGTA
Protocol: as §1

various enzymes [7] = biological target: various enzymes (Homo sapiens, UniProt P12931); conditions: compound 1 uM
Sequence of various enzymes (Homo sapiens, UniProt P12931) (P12931 whole entry): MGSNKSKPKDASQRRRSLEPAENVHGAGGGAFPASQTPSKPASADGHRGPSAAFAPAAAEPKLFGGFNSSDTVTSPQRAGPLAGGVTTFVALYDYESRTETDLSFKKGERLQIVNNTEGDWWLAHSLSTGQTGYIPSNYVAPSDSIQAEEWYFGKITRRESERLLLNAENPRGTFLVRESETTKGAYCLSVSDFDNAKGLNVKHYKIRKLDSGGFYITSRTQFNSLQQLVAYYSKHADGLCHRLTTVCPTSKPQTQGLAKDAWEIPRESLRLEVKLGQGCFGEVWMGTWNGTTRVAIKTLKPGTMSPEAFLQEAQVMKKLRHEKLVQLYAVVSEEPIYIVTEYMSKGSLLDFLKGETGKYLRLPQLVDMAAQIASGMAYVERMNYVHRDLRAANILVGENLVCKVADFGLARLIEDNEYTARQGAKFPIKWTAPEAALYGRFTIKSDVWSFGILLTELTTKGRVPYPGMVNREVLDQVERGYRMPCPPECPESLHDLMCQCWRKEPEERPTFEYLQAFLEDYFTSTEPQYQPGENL
Protocol: as §1

various enzymes [8] = biological target: various enzymes (Homo sapiens, UniProt Q9UEE5); conditions: compound 1 uM
Sequence of various enzymes (Homo sapiens, UniProt Q9UEE5) (Q9UEE5 whole entry): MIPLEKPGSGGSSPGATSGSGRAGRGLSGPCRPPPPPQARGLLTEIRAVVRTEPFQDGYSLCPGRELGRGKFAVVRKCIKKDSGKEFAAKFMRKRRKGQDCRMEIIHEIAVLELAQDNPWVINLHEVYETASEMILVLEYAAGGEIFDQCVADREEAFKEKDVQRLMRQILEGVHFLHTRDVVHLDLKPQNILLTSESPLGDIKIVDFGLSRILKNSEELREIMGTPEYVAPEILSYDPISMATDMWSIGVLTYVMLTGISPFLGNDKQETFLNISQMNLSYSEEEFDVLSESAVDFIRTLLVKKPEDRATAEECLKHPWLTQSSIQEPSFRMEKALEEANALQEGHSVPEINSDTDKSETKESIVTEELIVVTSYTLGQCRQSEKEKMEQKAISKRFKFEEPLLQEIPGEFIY
Protocol: as §1

various enzymes [9] = biological target: various enzymes (Homo sapiens, UniProt Q13705); conditions: compound 1 uM
Protocol: as §1

various enzymes [10] = biological target: various enzymes (Homo sapiens, UniProt O95747); conditions: compound 1 uM
Protocol: as §1

various enzymes [11] = biological target: various enzymes (Homo sapiens, UniProt P51813); conditions: compound 1 uM
Sequence of various enzymes (Homo sapiens, UniProt P51813) (P51813 whole entry): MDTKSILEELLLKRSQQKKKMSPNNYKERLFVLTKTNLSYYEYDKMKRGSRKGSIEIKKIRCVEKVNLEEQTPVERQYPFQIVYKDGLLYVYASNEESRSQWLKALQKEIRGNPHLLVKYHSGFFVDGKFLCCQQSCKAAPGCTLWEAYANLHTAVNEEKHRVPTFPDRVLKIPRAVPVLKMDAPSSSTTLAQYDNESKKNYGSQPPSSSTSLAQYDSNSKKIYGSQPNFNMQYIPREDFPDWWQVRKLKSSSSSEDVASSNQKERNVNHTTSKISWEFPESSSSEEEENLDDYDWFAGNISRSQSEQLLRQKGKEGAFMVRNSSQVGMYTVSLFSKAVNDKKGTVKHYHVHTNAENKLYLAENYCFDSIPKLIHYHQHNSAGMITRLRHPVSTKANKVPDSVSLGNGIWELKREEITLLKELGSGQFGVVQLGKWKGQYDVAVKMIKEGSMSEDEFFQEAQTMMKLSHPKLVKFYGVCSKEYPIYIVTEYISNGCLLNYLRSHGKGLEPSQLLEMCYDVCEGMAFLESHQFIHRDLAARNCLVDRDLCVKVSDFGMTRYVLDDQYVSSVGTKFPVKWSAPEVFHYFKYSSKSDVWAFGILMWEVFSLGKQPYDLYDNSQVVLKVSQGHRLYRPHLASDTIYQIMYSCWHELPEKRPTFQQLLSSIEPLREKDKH
Protocol: as §1

various enzymes [12] = biological target: various enzymes (Homo sapiens, UniProt Q14012); conditions: compound 1 uM
Protocol: as §1

various enzymes [13] = biological target: various enzymes (Homo sapiens, UniProt P48730); conditions: compound 1 uM
Sequence of various enzymes (Homo sapiens, UniProt P48730) (P48730 whole entry): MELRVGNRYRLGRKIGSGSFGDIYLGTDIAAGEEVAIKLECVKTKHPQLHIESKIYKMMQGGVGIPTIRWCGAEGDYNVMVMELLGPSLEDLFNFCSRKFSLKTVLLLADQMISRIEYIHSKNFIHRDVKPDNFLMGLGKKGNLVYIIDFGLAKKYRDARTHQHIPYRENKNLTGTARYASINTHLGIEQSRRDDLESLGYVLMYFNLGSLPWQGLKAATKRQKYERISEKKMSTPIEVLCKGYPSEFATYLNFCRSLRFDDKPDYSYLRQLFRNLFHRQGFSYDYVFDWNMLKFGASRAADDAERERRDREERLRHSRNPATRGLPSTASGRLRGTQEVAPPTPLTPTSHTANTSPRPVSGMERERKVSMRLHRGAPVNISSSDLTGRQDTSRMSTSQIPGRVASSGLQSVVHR
Protocol: as §1

various enzymes [14] = biological target: T2, various enzymes (Homo sapiens, UniProt Q08881); conditions: compound 1 uM
T2 sequence (Q08881 1-620): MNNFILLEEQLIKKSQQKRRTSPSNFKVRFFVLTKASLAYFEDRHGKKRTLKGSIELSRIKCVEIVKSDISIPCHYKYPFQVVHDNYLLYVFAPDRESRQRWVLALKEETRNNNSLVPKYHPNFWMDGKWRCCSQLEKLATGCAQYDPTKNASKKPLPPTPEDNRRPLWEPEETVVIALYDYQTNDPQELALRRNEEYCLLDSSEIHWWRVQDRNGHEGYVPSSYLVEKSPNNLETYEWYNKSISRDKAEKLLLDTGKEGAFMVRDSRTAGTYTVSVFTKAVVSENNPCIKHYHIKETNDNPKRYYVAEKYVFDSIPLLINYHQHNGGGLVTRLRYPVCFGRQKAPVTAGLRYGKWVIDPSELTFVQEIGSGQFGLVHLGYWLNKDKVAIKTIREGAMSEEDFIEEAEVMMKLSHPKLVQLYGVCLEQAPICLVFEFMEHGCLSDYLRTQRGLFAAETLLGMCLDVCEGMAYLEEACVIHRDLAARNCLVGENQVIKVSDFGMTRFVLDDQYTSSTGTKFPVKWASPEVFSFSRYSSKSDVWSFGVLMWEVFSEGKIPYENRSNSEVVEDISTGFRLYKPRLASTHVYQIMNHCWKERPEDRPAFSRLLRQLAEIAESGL
Protocol: as §1

various enzymes [15] = biological target: various enzymes (Homo sapiens, UniProt P11309); conditions: compound 1 uM
Sequence of various enzymes (Homo sapiens, UniProt P11309) (P11309 whole entry): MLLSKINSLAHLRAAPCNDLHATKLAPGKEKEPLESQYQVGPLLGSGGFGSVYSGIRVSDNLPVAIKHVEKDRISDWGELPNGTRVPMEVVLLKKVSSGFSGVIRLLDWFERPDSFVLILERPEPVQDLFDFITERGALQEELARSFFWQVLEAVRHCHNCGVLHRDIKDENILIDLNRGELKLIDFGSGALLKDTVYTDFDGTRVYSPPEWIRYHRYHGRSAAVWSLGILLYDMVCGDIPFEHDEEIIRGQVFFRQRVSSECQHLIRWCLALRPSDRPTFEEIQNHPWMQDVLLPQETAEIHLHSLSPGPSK
Protocol: as §1

various enzymes [16] = biological target: various enzymes (Homo sapiens, UniProt Q9BZL6); conditions: compound 1 uM
Sequence of various enzymes (Homo sapiens, UniProt Q9BZL6) (Q9BZL6 whole entry): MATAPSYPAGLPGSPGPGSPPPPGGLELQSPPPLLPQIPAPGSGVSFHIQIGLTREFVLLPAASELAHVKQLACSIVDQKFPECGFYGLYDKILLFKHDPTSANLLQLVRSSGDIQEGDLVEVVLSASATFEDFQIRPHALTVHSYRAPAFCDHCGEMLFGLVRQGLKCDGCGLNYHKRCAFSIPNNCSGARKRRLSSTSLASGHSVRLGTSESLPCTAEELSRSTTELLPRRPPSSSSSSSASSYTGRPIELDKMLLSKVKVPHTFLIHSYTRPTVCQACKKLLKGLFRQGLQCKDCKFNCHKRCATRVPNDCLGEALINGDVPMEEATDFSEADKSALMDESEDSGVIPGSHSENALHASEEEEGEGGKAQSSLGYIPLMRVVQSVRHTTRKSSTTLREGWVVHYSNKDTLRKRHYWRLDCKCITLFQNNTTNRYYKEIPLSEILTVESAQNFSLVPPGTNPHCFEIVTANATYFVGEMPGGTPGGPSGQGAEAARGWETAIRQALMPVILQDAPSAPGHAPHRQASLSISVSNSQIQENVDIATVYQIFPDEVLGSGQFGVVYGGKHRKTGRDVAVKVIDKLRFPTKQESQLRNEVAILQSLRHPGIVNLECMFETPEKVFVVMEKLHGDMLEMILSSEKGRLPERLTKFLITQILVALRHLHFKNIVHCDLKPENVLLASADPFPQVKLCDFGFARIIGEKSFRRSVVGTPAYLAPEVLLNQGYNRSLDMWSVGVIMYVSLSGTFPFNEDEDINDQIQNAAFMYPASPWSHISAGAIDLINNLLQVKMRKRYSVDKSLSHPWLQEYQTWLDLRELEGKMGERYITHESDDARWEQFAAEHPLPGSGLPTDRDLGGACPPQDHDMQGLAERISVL
Protocol: as §1

various enzymes [17] = biological target: various enzymes (Homo sapiens, UniProt P29320); conditions: compound 1 uM
Protocol: as §1

various enzymes [18] = biological target: various enzymes (Homo sapiens, UniProt P00533, L858R)
Protocol: as §1

Row | SMILES | Ambit profiling: FLT3(ITD) (various enzymes [2]) | Ambit profiling: PRKD3 (various enzymes [4]) | Ambit profiling: CSNK1E (various enzymes [5]) | Ambit profiling: AKT1 (various enzymes [6]) | Ambit profiling: SRC (various enzymes [7]) | Ambit profiling: DRAK1 (various enzymes [8]) | Ambit profiling: ACVR2B (various enzymes [9]) | Ambit profiling: OSR1 (various enzymes [10]) | Ambit profiling: BMX (various enzymes [11]) | Ambit profiling: CAMK1 (various enzymes [12]) | Ambit profiling: ITK (various enzymes [14]) | Ambit profiling: PIM1 (various enzymes [15]) | Ambit profiling: PRKD2 (various enzymes [16]) | Ambit profiling: EPHA3 (various enzymes [17]) | further results
1 | COc1c2c(nn1C)CN(C(C)C)C(=O)CCCn1cc(c(C(F)(F)F)n1)-c1c[nH]c3ncc-2cc13 [Compound 50, (Z)-5-isopropyl-35-methoxy-31-methyl-13-(trifluoromethyl)-11H,21H,31H-5-aza-2(3,5)-pyrrolo[2,3-b]pyridina-1(4,1),3(4,3)-dipyrazolacyclononaphan-6-one] | 0.35 | 15 | 13 | 100 | 13 | 100 | 92 | 100 | 24 | 53 | 46 | 77 | 55 | 45 | Ambit profiling: EGFR(L747-E749del, A750P) (various enzymes [1]): 3.1; Ambit profiling: EGFR(L747-S752del, P753S) (various enzymes [3]): 14; Ambit profiling: CSNK10 (various enzymes [13]): 11; Ambit profiling: EGFR(L858R) (various enzymes [18]): 18
2 | CC(C)N1Cc2nn(C)cc2-c2cnc3[nH]cc(c3c2)-c2cn(nc2C(F)(F)F)CCCC1=O [Compound 45, (Z)-5-isopropyl-31-methyl-13-(trifluoromethyl)-11H,21H,31H-5-aza-2(3,5)-pyrrolo[2,3-b]pyridina-1(4,1),3(4,3)-dipyrazolacyclononaphan-6-one] | 0.3 | 11 | 23 | 100 | 25 | 100 | 79 | 100 | 35 | 91 | 38 | 75 | 43 | 32 | Ambit profiling: EGFR(L747-E749del, A750P) (various enzymes [1]; compound 1 uM): 10; Ambit profiling: EGFR(L747-S752del, P753S) (various enzymes [3]; compound 1 uM): 15; Ambit profiling: CSNK1D (various enzymes [13]): 28; Ambit profiling: EGFR(L858R) (various enzymes [18]; compound 1 uM): 25
